Data taken from ChEMBL document CHEMBL4359830, “Discovery and structure-activity relationship of novel diphenylthiazole derivatives as BTK inhibitor with potent activity against B cell lymphoma cell lines” (Eur J Med Chem, 2019).

What was measured:
[1] = target: Tyrosine-protein kinase BTK (Homo sapiens, UniProt Q06187); experiment: Inhibition of human recombinant full length N-terminal His tagged BTK expressed in baculovirus infected Sf9 cells using poly (Glu,Tyr) 4:1 as substrate measured after 60 mins in presence of ATP by ADP-Glo kinase assay
Sequence of Tyrosine-protein kinase BTK (Homo sapiens, UniProt Q06187) (Q06187 whole entry): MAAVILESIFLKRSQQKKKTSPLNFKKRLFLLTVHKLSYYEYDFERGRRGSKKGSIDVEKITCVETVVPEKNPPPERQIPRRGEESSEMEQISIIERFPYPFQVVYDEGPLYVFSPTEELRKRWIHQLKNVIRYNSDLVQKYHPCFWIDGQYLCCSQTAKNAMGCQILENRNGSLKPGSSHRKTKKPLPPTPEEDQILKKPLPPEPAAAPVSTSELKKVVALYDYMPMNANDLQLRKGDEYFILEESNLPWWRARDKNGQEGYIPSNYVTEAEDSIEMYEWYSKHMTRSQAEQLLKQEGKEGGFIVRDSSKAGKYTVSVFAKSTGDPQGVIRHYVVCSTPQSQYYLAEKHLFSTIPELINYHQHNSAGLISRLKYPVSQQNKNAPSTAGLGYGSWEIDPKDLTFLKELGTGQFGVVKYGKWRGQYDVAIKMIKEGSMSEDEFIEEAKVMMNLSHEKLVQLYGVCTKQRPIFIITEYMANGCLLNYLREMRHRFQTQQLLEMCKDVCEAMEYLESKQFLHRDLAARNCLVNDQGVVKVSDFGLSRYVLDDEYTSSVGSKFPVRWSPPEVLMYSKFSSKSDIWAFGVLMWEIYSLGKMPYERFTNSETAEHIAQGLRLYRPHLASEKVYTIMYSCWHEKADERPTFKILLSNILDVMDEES

[2] = target: Tyrosine-protein kinase BTK (Homo sapiens, UniProt Q06187, C481S); experiment: Inhibition of human recombinant full length N-terminal His tagged BTK C481S mutant expressed in baculovirus infected Sf9 cells using poly (Glu,Tyr) 4:1 as substrate measured after 60 mins in presence of ATP by ADP-Glo kinase assay
Sequence of Tyrosine-protein kinase BTK (Homo sapiens, UniProt Q06187, C481S) (Q06187 2-659 C481S limits assumed): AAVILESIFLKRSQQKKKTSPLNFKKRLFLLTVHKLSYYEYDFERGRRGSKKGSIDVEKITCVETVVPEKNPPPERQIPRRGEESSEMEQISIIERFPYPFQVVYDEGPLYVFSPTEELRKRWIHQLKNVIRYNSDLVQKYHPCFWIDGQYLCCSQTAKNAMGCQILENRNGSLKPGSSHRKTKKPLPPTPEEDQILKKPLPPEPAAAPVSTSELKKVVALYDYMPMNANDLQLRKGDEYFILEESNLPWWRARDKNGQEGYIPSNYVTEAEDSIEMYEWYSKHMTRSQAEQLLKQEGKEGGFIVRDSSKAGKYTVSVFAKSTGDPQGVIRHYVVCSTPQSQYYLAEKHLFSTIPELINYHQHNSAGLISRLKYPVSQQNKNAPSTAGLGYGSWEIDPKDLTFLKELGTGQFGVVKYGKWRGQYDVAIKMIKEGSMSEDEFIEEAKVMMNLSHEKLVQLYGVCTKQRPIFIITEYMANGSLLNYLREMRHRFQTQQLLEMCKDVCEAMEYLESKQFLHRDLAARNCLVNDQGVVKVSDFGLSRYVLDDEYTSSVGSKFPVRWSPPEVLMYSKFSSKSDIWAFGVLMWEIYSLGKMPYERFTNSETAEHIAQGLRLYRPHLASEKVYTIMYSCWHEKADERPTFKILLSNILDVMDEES

Ramos [3] = experiment: Induction of apoptosis in human Ramos cells assessed as early apoptotic cells at 0.1 uM measured after 15 mins by Annexin-V-APC staining-based flow cytometric analysis (reference value: 0.14 %); type: functional
Ramos [4] = experiment: Induction of apoptosis in human Ramos cells assessed as necrotic cells at 0.1 uM measured after 15 mins by Annexin-V-APC staining-based flow cytometric analysis (reference value: 1.50 %); type: functional
Ramos [5] = experiment: Induction of apoptosis in human Ramos cells assessed as early apoptotic cells at 3 uM measured after 15 mins by Annexin-V-APC staining-based flow cytometric analysis (reference value: 0.14 %); type: functional
Ramos [6] = experiment: Induction of apoptosis in human Ramos cells assessed as early apoptotic cells at 5 uM measured after 15 mins by Annexin-V-APC staining-based flow cytometric analysis (reference value: 0.14 %); type: functional
Raji [7] = experiment: Induction of apoptosis in human Raji cells assessed as viable cells at 0.1 uM measured after 15 mins by Annexin-V-APC staining-based flow cytometric analysis (reference value: 97.5 %); type: functional; details: 0.25 h, read-out: Activity
Raji [8] = experiment: Induction of apoptosis in human Raji cells assessed as early apoptotic cells at 0.1 uM measured after 15 mins by Annexin-V-APC staining-based flow cytometric analysis (reference value: 0.021 %); type: functional
Raji [9] = experiment: Induction of apoptosis in human Raji cells assessed as necrotic cells at 0.1 uM measured after 15 mins by Annexin-V-APC staining-based flow cytometric analysis (reference value: 1.87 %); type: functional
Raji [10] = experiment: Induction of apoptosis in human Raji cells assessed as early apoptotic cells at 1 uM measured after 15 mins by Annexin-V-APC staining-based flow cytometric analysis (reference value: 0.021 %); type: functional
Raji [11] = experiment: Induction of apoptosis in human Raji cells assessed as viable cells at 3 uM measured after 15 mins by Annexin-V-APC staining-based flow cytometric analysis (reference value: 97.5 %); type: functional; details: 0.25 h, read-out: Activity
Raji [12] = experiment: Induction of apoptosis in human Raji cells assessed as early apoptotic cells at 3 uM measured after 15 mins by Annexin-V-APC staining-based flow cytometric analysis (reference value: 0.021 %); type: functional
Raji [13] = experiment: Induction of apoptosis in human Raji cells assessed as viable cells at 5 uM measured after 15 mins by Annexin-V-APC staining-based flow cytometric analysis (reference value: 97.5 %); type: functional; details: Homo sapiens, Raji, 0.25 h; read-out: Activity
Raji [14] = experiment: Induction of apoptosis in human Raji cells assessed as early apoptotic cells at 5 uM measured after 15 mins by Annexin-V-APC staining-based flow cytometric analysis (reference value: 0.021 %); type: functional
Ramos [15] = experiment: Cell cycle arrest in human Ramos cells assessed as accumulation at G0/G1 phase at 0.1 uM measured after 48 hrs by propidium iodide/RNase staining based flow cytometric analysis (reference value: 37.66 %); type: functional
Ramos [16] = experiment: Cell cycle arrest in human Ramos cells assessed as accumulation at S phase at 0.1 uM measured after 48 hrs by propidium iodide/RNase staining based flow cytometric analysis (reference value: 56.35 %); type: functional
Ramos [17] = experiment: Cell cycle arrest in human Ramos cells assessed as accumulation at G2/M phase at 0.1 uM measured after 48 hrs by propidium iodide/RNase staining based flow cytometric analysis (reference value: 5.98 %); type: functional
Ramos [18] = experiment: Cell cycle arrest in human Ramos cells assessed as accumulation at G0/G1 phase at 1 uM measured after 48 hrs by propidium iodide/RNase staining based flow cytometric analysis (reference value: 37.66 %); type: functional
Ramos [19] = experiment: Cell cycle arrest in human Ramos cells assessed as accumulation at G2/M phase at 1 uM measured after 48 hrs by propidium iodide/RNase staining based flow cytometric analysis (reference value: 5.98 %); type: functional
Ramos [20] = experiment: Cell cycle arrest in human Ramos cells assessed as accumulation at G0/G1 phase at 5 uM measured after 48 hrs by propidium iodide/RNase staining based flow cytometric analysis (reference value: 37.66 %); type: functional
Ramos [21] = experiment: Cell cycle arrest in human Ramos cells assessed as accumulation at G2/M phase at 5 uM measured after 48 hrs by propidium iodide/RNase staining based flow cytometric analysis (reference value: 5.98 %); type: functional
Raji [22] = experiment: Cell cycle arrest in human Raji cells assessed as accumulation at S phase at 0.1 uM measured after 48 hrs by propidium iodide/RNase staining based flow cytometric analysis (reference value: 33.18 %); type: functional
Raji [23] = experiment: Cell cycle arrest in human Raji cells assessed as accumulation at G2/M phase at 0.1 uM measured after 48 hrs by propidium iodide/RNase staining based flow cytometric analysis (reference value: 18.14 %); type: functional
Raji [24] = experiment: Cell cycle arrest in human Raji cells assessed as accumulation at G0/G1 phase at 1 uM measured after 48 hrs by propidium iodide/RNase staining based flow cytometric analysis (reference value: 48.68 %); type: functional
Raji [25] = experiment: Cell cycle arrest in human Raji cells assessed as accumulation at S phase at 1 uM measured after 48 hrs by propidium iodide/RNase staining based flow cytometric analysis (reference value: 33.18 %); type: functional
Raji [26] = experiment: Cell cycle arrest in human Raji cells assessed as accumulation at G0/G1 phase at 5 uM measured after 48 hrs by propidium iodide/RNase staining based flow cytometric analysis (reference value: 48.68 %); type: functional

## CN1CCN(c2ccc(Nc3nc(-c4cccc(NC(=O)c5ccc(F)c(Cl)c5)c4)sc3C(N)=O)cc2)CC1
[1]
  IC50: 90 nM
[2]
  IC50: 61 nM
Ramos [3]
  Activity: 0.072%
Ramos [4]
  Activity: 1.61%
Ramos [5]
  Activity: 0.052%
Ramos [6]
  Activity: 0.28%
Raji [7]
  viability at 0.1 µM: 97.8%
Raji [8]
  Activity: 0.01%
Raji [9]
  Activity: 1.76%
Raji [10]
  Activity: 0%
Raji [11]
  viability at 3 µM: 95.6%
Raji [12]
  Activity: 0%
Raji [13]
  viability at 5 µM: 0.15%
Raji [14]
  Activity: 0.091%
Ramos [15]
  Activity: 40.13%
Ramos [16]
  Activity: 51.54%
Ramos [17]
  Activity: 8.33%
Ramos [18]
  Activity: 55.48%
Ramos [19]
  Activity: 11.39%
Ramos [20]
  Activity: 83.68%
Ramos [21]
  Activity: 2.17%
Raji [22]
  Activity: 33.63%
Raji [23]
  Activity: 19.33%
Raji [24]
  Activity: 54%
Raji [25]
  Activity: 21.47%
Raji [26]
  Activity: 82.55%
